Counter-ions that a name gives are not always drawn. Marks after values point to notes of the source that are not given here.
Key:
[1] = system: conditioned fear stressed animal model (abnormal evacuation); test: Conditioned fear stress (CFS)-induced abnormal evacuation, wet feces weight; format: in vivo, rat; details: oral administration 1 hour before CFS loading; 30 minutes CFS; linear regression, n=12
Source text: (§1) Male Sprague-Dawley rats (6 weeks of age, CLEA Japan) were used. The rats which passed 1 week or more after their receipt were divided into groups of 12 animals per group in such a manner that their average values and standard deviations of body weight became almost the same. The electric shock conditions were set in accordance with the results of preliminary examinations. That is, the rats were put into an electric shock device (17×17×39 cm, CB 2000 type, O'Hara) having an electrode set in the floor, and after 3 seconds of warning sound, their conditioning was carried out by applying an electric current of 2 mA at the maximum for 5 seconds per once per minute, a total of 15 times, and irradiating light at the time of the electric shock using 3 electric bulbs of 40 w. The control group was put into the electric shock device by the same protocol, but without applying the electric shock. From 18 to 24 hours thereafter, each drug to be tested was orally administered to each animal by force at a dose of 5 mL/kg, they were again put into the electric shock device 1 hour thereafter, and then a conditioned fear stress (CFS) loading was carried out by applying 3 seconds of warning sound and subsequent 5 seconds of light irradiation for 30 minutes.
The number of evacuations was recorded after 2, 4, 6, 8, 10, 15, 20, 25 and 30 minutes of the commencement of the CFS loading, and wet weights of feces were measured by recovering the feces at the time of the completion of the measurement. In addition, the feces were dried at 70° C. for 22 hours and then their dry weights were measured to calculate the moisture content. In this connection, the evacuations just after putting them into the measuring device were excluded from the measured values of the number of evacuations and feces weights.

[2] = system: conditioned fear stressed animal model (proximal large intestine transport); test: Proximal large intestine transport ability by marker method after CFS loading; format: in vivo, rat; details: 30 minutes after CFS loading
Experimental: (§2) Male Sprague-Dawley rats (6 to 7 weeks of age, CLEA Japan) were used. The rats which passed about 1 week after their receipt were used in the test. The electric shock conditions were set in accordance with Example 1. That is, the rats were put into an electric shock device (17×17×39 cm, CB 2000 type, O'Hara) having an electrode set in the floor, and after 3 seconds of warning sound, their conditioning was carried out by applying an electric current of 2.5 mA for 5 seconds per minute per once, a total of 15 times, and irradiating light at the time of the electric shock using 3 electric bulbs of 40 w. The normal group was put into the electric shock device by the same protocol, but without applying the electric shock. From 20 to 24 hours thereafter, each drug to be tested was orally administered to each animal by force at a dose of 5 mL/kg, they were again put into the electric shock device 1 hour thereafter, and then a conditioned fear stress (CFS) loading was carried out by applying 3 seconds of warning sound and subsequent 5 seconds of light irradiation for 30 minutes.
Measurement of proximal large intestine transport ability by a marker method was carried out by modifying the method of Kadowaki et al. (Journal of Pharmacology and Experimental Therapeutics, 1993, vol. 266, p. 74-80). That is, abdominal part of each rat was subjected to median incision (about 1 cm) under pentobarbital (50 mg/kg ip) anesthesia, and the ileocecal junction was extracted. A large intestinal part of about 1 cm from the connecting part was extracted from the neck by inserting canula (SP 50). The animals were individually reared for 5 days until the test, under conditions of free ingestion and free drinking. A Carmine Red solution (0.2 mL of 0.5% methyl cellulose solution containing 3 g of Carmine Red and 5 g of acacia) was injected trough the canula, CFS was loaded for 30 minutes by the aforementioned method, and then the animals were sacrificed by a decapitation device. By quickly carrying out median incision, large intestine starting part-anus part was extracted, and the whole length and marker shifting distance were measured using the canula insertion part as the starting point. The large intestine transport ability (%) was calculated as (marker shifting distance)÷(whole length)×100.

[3] = system: conditioned fear stressed animal model (distal large intestine transport); test: Distal large intestine transport ability by beads discharge method after CFS loading; format: in vivo, rat; details: control group 13.70, normal group 0.38
Experimental: as §2, with “test by 12 animals per group.” for “test.”
Measurement of large intestine transport ability by a beads discharge method was carried out by modifying the method of Negri et al. (British Journal of Pharmacology, 1999, no. 128, p. 1554-60). That is, under light ether anesthesia, silicon beads (3 mm in diameter) were inserted in a length of 3 cm into the rectum side from the anus part using a silicon rod. After waking, the silicon rod was immediately removed to carry out CFS loading. The CFS loading starting time and silicon beads discharging time were recorded, and the measurement finishing time was set to 90 minutes in CFS group and 8 hours in normal group after the starting of the measurement. The distal large intestine transport ability (mm/min) was calculated as 30 mm÷required beads discharge time (min).

[4] = system: conditioned fear stressed animal model (freezing behavior); test: CFS-induced freezing behavior; format: in vivo, rat; details: oral; for influence upon CFS-induced freezing behavior: 30 minutes observation after CFS loading, all of the doses tested
Source text: as §1
Regarding the measurement of freezing behavior (freezing), a case of not moving at all during 30 seconds other than the movement accompanied by breathing was evaluated as the freezing behavior. The evaluation times were set to 0, 1, 3, 5, 7, 9, 12, 13, 14, 17, 18, 19, 22, 23, 24, 27, 28 and 29 minutes after the CFS loading, and the measurement was carried out at intervals of 30 seconds per minute. The ratio (%) of showing the freezing behavior by each animal was calculated in 3 plots of from 0 to 9 minutes (Block 1), from 10 to 19 minutes (Block 2) and from 20 to 29 minutes (Block 3) after the loading.

[5] = system: conditioned fear stressed animal model; details: cited from earlier work; for freezing behavior: reported in the literature (Non-patent References 4-7)

SMILES | ED50 value of the controlling ratio of wet feces weights increased by CFS loading [1] [mg/kg] | influence upon CFS-induced freezing behavior [4] | freezing behavior [5] | also measured
CN(C)C(=O)C(CCN1CCC(O)(c2ccc(Cl)cc2)CC1)(c1ccccc1)c1ccccc1 [Loperamide hydrochloride, loperamide hydrochloride] | 9.000 |  |  | proximal large intestine transport rate increased by the CFS loading ([2]; 10 mg/kg oral): lowered; Distal large intestine transport ability ([3]; dose 10 mg/kg oral): 3.64** mm/min; freezing behavior-expressing time of 20 to 29 minutes after CFS loading (Block 3) ([4]; action significant at a dose of 30 mg/kg): dose-dependently prolonged
Cc1nccn1C[C@H]1CCc2c(c3cccc4c3n2CCC4)C1=O [Cilansetron hydrochloride, cilansetron hydrochloride] | 0.094 | did not exert influence |  | proximal large intestine transport rate increased by the CFS loading ([2]; 0.3 mg/kg oral): lowered; Distal large intestine transport ability ([3]; dose 0.3 mg/kg oral): 5.06** mm/min
CN1C(=O)CN=C(c2ccccc2)c2cc(Cl)ccc21 [diazepam] |  |  | suppressed | 
CNCCC(Oc1ccc(C(F)(F)F)cc1)c1ccccc1 (centres unmarked) [fluoxetine] |  |  | suppressed | bowel movement ([5]; reported in the literature (Non-patent References 5-7)): suppressed
Cn1cc(C(=O)[C@@H]2CCc3nc[nH]c3C2)c2ccccc21 [Ramosetron hydrochloride, ramosetron hydrochloride] | 0.012 | did not exert influence |  | proximal large intestine transport rate increased by the CFS loading ([2]; 0.1 mg/kg oral): lowered; Distal large intestine transport ability ([3]; dose 0.1 mg/kg oral): 4.93** mm/min
Cc1ncc2n1-c1ccc(Cl)cc1C(c1ccccc1F)=NC2 [midazolam] |  |  | suppressed | 
Cc1[nH]cnc1CN1CCc2c(c3ccccc3n2C)C1=O [Alosetron hydrochloride, alosetron hydrochloride] | 0.078 | did not exert influence |  | proximal large intestine transport rate increased by the CFS loading ([2]; 0.3 mg/kg oral): lowered; Distal large intestine transport ability ([3]; dose 0.3 mg/kg oral): 5.04* mm/min

Source: patent US20080010691A1, “Method of Screening Therapeutic Agent for Irritable Bowel Syndrome” (priority 2005, published 2008)
